Data taken from ChEMBL document CHEMBL1743141, “Membrane transporters in drug development” (Nat Rev Drug Discov, 2010).

Experiments:
Format in all cases: ADME
[1] = biological target: T1, Solute carrier family 22 member 6 (Homo sapiens, UniProt Q4U2R8); assay: Substrates of transporters of clinical importance in the absorption and disposition of drugs, OAT1
T1 sequence (Q4U2R8 whole entry): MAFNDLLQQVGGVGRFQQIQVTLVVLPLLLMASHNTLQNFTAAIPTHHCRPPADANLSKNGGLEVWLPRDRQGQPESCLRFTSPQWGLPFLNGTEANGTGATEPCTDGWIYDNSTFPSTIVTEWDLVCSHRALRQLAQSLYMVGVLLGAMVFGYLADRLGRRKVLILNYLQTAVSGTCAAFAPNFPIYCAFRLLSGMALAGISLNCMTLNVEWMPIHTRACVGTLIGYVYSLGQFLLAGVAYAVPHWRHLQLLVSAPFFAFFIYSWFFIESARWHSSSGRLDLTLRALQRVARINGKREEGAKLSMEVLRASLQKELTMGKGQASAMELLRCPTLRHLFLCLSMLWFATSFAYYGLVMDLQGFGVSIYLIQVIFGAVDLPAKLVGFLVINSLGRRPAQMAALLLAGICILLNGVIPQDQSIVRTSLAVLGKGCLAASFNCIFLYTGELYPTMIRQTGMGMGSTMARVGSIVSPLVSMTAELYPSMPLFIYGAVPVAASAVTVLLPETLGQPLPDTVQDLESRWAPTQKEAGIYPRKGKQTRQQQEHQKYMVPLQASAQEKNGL

[2] = biological target: T2, Solute carrier organic anion transporter family member 2B1 (Homo sapiens, UniProt O94956); assay: Substrates of transporters of clinical importance in the absorption and disposition of drugs, OATP2B1
T2 sequence (O94956 whole entry): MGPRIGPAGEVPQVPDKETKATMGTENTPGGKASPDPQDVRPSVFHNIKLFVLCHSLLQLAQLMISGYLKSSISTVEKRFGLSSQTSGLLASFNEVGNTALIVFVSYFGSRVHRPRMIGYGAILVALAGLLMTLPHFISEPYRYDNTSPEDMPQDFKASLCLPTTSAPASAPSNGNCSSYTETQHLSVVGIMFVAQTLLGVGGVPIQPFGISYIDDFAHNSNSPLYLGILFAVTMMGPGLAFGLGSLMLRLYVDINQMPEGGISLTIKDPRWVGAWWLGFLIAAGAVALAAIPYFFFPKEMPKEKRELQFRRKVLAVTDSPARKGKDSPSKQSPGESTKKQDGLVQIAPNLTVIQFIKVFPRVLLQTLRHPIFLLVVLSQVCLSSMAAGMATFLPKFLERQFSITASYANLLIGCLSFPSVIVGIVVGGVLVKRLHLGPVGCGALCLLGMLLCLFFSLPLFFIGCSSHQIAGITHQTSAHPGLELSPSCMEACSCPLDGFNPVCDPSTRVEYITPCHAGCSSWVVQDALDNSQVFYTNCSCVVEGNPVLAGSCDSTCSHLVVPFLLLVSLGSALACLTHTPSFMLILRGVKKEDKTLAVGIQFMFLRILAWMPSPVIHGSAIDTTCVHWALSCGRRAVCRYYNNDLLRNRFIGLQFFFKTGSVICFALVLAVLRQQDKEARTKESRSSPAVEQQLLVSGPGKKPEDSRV

[3] = biological target: ATP-binding cassette sub-family C member 2 (Homo sapiens, UniProt Q92887); assay: Substrates of transporters of clinical importance in the absorption and disposition of drugs, MRP2
Sequence of ATP-binding cassette sub-family C member 2 (Q92887 whole entry): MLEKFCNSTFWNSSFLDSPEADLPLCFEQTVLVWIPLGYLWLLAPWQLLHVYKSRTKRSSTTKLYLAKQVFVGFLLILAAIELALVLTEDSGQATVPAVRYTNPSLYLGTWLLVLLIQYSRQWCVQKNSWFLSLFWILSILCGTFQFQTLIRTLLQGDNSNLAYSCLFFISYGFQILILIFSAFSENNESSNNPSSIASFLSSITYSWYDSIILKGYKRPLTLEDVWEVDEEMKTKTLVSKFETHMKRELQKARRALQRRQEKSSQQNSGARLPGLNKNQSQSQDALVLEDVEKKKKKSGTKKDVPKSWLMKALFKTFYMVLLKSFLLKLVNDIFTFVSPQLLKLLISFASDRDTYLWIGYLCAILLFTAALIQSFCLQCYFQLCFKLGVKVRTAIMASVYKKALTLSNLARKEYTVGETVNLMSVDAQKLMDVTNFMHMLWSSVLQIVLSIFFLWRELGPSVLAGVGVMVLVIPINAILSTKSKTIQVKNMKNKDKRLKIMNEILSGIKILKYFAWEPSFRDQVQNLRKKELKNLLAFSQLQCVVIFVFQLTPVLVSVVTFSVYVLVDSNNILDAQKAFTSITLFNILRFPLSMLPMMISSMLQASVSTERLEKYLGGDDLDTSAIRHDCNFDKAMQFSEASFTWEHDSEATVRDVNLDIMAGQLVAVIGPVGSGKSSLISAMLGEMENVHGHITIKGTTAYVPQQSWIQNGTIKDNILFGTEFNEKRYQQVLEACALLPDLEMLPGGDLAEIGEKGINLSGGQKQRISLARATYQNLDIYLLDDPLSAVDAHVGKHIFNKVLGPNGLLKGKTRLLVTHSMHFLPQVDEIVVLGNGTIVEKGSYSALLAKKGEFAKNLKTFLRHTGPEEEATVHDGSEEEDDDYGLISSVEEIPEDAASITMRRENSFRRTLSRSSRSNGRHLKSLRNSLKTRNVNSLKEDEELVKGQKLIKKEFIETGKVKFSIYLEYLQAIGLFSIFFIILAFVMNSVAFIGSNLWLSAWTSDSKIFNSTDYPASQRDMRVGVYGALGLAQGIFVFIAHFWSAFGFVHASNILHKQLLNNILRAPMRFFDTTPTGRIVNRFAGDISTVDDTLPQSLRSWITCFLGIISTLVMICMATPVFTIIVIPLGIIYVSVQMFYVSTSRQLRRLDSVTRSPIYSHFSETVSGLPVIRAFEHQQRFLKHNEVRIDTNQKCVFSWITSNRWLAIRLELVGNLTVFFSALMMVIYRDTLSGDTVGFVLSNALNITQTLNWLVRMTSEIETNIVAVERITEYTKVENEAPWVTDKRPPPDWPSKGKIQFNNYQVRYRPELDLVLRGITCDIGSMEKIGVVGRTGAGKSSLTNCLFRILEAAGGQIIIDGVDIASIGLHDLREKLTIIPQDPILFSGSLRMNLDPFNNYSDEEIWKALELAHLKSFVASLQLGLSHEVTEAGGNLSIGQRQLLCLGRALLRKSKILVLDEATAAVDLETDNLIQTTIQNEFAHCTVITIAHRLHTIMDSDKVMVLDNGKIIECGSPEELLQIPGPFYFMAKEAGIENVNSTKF

[4] = biological target: T3, Solute carrier organic anion transporter family member 1B1 (Homo sapiens, UniProt Q9Y6L6); assay: Substrates of transporters of clinical importance in the absorption and disposition of drugs, OATP1B1
T3 sequence (Q9Y6L6 whole entry): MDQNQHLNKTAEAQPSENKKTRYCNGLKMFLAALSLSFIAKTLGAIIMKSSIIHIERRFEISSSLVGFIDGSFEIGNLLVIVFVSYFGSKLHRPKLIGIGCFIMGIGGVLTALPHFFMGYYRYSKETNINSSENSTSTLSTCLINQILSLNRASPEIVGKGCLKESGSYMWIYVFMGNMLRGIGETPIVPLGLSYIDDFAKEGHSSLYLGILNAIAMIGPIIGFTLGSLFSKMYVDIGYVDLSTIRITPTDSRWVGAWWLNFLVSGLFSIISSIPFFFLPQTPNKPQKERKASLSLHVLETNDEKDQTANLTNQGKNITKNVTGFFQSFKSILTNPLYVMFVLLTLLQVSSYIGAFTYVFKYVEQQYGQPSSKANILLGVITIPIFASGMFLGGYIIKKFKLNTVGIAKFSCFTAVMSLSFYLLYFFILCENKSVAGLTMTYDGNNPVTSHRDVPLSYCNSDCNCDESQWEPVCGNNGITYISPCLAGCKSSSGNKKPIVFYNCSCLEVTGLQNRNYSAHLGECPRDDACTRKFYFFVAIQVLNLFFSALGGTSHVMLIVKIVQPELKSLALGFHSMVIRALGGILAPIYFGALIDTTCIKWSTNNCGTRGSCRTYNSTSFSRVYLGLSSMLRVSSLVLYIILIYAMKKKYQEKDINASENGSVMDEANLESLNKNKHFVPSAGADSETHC

[5] = biological target: T4, Solute carrier organic anion transporter family member 1B3 (Homo sapiens, UniProt Q9NPD5); assay: Substrates of transporters of clinical importance in the absorption and disposition of drugs, OATP1B3
T4 sequence (Q9NPD5 whole entry): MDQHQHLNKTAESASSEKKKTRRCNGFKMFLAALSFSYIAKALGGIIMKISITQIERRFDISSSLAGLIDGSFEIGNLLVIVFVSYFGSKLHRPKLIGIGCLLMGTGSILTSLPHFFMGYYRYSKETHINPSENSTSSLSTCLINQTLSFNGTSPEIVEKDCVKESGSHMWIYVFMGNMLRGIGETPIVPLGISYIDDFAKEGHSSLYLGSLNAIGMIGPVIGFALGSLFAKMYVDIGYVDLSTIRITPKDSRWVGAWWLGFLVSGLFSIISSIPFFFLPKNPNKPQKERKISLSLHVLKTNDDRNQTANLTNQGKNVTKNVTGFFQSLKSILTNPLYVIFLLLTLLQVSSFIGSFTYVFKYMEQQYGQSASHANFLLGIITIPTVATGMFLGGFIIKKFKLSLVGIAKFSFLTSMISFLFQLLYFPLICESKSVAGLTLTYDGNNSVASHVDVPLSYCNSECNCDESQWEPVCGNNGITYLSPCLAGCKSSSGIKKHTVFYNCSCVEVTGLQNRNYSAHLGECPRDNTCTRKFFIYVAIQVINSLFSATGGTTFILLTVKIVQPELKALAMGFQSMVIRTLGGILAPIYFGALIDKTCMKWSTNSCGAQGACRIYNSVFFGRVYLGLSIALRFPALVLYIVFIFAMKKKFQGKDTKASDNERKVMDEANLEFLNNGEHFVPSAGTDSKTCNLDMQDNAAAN

[6] = biological target: T5, Organic anion transporter 3 (Homo sapiens, UniProt Q8TCC7); assay: Substrates of transporters of clinical importance in the absorption and disposition of drugs, OAT3
T5 sequence (Q8TCC7 whole entry): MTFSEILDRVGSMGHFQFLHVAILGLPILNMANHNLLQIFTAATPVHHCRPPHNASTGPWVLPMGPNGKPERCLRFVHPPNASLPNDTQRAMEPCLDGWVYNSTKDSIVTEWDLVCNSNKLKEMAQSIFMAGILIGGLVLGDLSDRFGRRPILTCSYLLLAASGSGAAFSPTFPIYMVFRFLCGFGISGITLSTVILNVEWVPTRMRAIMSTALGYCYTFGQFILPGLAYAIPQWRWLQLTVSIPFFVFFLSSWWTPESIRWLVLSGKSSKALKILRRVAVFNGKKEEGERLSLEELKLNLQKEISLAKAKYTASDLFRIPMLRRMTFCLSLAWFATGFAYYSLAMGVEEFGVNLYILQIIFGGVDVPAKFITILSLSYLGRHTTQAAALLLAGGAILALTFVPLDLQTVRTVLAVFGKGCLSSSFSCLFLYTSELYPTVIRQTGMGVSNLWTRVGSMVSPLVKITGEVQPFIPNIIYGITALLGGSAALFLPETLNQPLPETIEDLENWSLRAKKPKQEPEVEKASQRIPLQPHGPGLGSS

[7] = biological target: T6, ATP-binding cassette sub-family C member 4 (Homo sapiens, UniProt O15439); assay: Substrates of transporters of clinical importance in the absorption and disposition of drugs, MRP4
T6 sequence (O15439 whole entry): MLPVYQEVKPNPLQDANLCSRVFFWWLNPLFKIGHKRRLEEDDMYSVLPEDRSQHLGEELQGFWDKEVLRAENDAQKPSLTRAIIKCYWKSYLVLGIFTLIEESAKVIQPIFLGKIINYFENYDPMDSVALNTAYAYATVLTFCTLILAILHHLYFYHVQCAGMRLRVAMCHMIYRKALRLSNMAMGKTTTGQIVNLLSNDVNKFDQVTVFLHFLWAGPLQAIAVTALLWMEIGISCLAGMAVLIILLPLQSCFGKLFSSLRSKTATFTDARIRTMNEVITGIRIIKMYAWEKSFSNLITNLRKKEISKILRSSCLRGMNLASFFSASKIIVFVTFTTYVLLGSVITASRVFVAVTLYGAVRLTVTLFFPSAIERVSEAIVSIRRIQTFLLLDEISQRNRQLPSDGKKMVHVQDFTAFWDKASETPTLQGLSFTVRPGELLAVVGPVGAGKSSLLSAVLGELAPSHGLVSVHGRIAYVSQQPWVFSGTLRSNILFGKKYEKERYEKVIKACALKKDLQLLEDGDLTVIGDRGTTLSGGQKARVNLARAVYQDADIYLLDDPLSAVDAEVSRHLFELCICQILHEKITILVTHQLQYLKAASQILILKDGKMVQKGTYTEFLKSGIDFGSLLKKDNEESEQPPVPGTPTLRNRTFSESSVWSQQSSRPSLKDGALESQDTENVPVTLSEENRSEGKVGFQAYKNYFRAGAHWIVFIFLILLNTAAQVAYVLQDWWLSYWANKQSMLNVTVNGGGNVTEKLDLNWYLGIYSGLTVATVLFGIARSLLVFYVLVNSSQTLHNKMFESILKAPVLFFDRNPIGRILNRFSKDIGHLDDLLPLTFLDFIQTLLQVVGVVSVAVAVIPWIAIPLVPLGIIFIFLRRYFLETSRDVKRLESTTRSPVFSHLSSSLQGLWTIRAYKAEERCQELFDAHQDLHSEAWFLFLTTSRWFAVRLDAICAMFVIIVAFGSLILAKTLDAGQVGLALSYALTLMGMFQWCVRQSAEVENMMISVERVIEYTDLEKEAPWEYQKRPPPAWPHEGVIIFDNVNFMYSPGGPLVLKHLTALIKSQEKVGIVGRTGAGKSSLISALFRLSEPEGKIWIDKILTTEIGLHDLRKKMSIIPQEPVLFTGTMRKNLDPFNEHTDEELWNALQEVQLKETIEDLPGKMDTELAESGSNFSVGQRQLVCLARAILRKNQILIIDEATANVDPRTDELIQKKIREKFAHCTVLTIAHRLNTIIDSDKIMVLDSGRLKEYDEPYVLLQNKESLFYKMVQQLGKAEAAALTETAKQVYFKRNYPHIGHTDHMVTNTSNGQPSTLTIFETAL

Cc1cn([C@H]2C[C@H](N=[N+]=[N-])[C@@H](CO)O2)c(=O)[nH]c1=O [ZIDOVUDINE]
Activity [1]: transporter substrate

Nc1ccn([C@H]2CC[C@@H](CO)O2)c(=O)n1 [ZALCITABINE]
Activity [1]: transporter substrate

COc1ccc(Cl)cc1C(=O)NCCc1ccc(S(=O)(=O)NC(=O)NC2CCCCC2)cc1 [GLYBURIDE]
Activity [2]: transporter substrate

CCCCC(=O)N(Cc1ccc(-c2ccccc2-c2nnn[nH]2)cc1)[C@H](C(=O)O)C(C)C
Activity [3]: transporter substrate | Activity [4]: transporter substrate | Activity [5]: transporter substrate

N[C@@H](C(=O)N[C@@H]1C(=O)N2C(C(=O)O)=C(Cl)CS[C@H]12)c1ccccc1 [CEFACLOR ANHYDROUS]
Activity [6]: transporter substrate

C[C@H](Cn1cnc2c(N)ncnc21)OCP(=O)(O)O [TENOFOVIR ANHYDROUS]
Activity [1]: transporter substrate | Activity [7]: transporter substrate

CCCCNc1cc(C(=O)O)cc(S(N)(=O)=O)c1Oc1ccccc1 [BUMETANIDE]
Activity [6]: transporter substrate

CO/N=C(\C(=O)N[C@@H]1C(=O)N2C(C(=O)O)=CCS[C@H]12)c1csc(N)n1 [CEFTIZOXIME]
Activity [6]: transporter substrate

CCCc1nc(C(C)(C)O)c(C(=O)O)n1Cc1ccc(-c2ccccc2-c2nnn[nH]2)cc1 [OLMESARTAN]
Activity [3]: transporter substrate | Activity [4]: transporter substrate | Activity [5]: transporter substrate

Nc1ccn(C[C@@H](CO)OCP(=O)(O)O)c(=O)n1.O.O [CIDOFOVIR]
Activity [1]: transporter substrate

Nc1ncnc2c1ncn2CCOCP(=O)(O)O [ADEFOVIR]
Activity [1]: transporter substrate | Activity [7]: transporter substrate

NS(=O)(=O)c1cc(C(=O)O)c(NCc2ccco2)cc1Cl [FUROSEMIDE]
Activity [6]: transporter substrate | Activity [7]: transporter substrate
